{"source": "BindingDB's records for doi:10.1111/cbdd.12118", "about": "(Bombay College of Pharmacy, 2013)", "data": [{"biological_target": "T1, Enoyl-acyl carrier reductase (Plasmodium falciparum, UniProt Q9BH77)", "T1 sequence (Q9BH77 whole entry)": "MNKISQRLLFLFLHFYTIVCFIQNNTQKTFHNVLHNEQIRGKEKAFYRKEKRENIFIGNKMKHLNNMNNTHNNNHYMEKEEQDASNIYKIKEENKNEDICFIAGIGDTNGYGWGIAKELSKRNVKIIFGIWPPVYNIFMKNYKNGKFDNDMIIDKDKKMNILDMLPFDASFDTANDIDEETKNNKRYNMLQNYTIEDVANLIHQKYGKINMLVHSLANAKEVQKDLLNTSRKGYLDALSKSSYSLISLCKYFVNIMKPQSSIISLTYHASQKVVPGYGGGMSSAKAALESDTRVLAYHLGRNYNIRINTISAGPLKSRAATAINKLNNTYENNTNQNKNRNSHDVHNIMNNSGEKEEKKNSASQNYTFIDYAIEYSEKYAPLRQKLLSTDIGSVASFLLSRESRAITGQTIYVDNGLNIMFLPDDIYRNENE", "assay": "Fabl Assay", "conditions": "pH 7.4", "text": "Inhibition assay using pfENR.", "units": {"IC50": "µM"}, "values": [{"smiles": "O=C(CNc1ccccc1)N/N=C/c1ccccc1", "note": "[Phenylaminoacetic acid benzylidene hydrazine analog, 8]", "IC50": 197}, {"smiles": "O=C(CNc1cccc(F)c1Cl)N/N=C/c1ccccc1O", "note": "[Phenylaminoacetic acid benzylidene hydrazine analog, 12]", "IC50": "> 155"}, {"smiles": "O=C(CNc1ccccc1)N/N=C/c1cccc(Br)c1", "note": "[Phenylaminoacetic acid benzylidene hydrazine analog, 9]", "IC50": 90}, {"smiles": "O=C(CNc1ccccc1)N/N=C/c1ccccc1O", "note": "[Phenylaminoacetic acid benzylidene hydrazine analog, 10]", "IC50": "> 185"}, {"smiles": "COc1ccc(/C=N/NC(=O)CNc2ccc(Cl)cc2)cc1OC", "note": "[Phenylaminoacetic acid benzylidene hydrazine analog, 3]", "IC50": "> 143"}, {"smiles": "O=C(CNc1cccc(F)c1Cl)N/N=C/c1ccccc1Cl", "note": "[Phenylaminoacetic acid benzylidene hydrazine analog, 14]", "IC50": 29}, {"smiles": "O=C(CNc1cccc(F)c1Cl)N/N=C/c1cccc(Br)c1", "note": "[Phenylaminoacetic acid benzylidene hydrazine analog, 15]", "IC50": "> 129"}, {"smiles": "O=C(CNc1cccc(Cl)c1)N/N=C/c1ccccc1", "note": "[Phenylaminoacetic acid benzylidene hydrazine analog, 19]", "IC50": 173}, {"smiles": "O=C(CNc1ccc(Cl)cc1)N/N=C/c1ccccc1", "note": "[Phenylaminoacetic acid benzylidene hydrazine analog, 4]", "IC50": 10}, {"smiles": "O=C(CNc1cccc(F)c1Cl)N/N=C/c1ccccc1", "note": "[Phenylaminoacetic acid benzylidene hydrazine analog, 13]", "IC50": "> 163"}, {"smiles": "O=C(CNc1ccc(Cl)cc1)N/N=C/c1cccc(Br)c1", "note": "[Phenylaminoacetic acid benzylidene hydrazine analog, 17]", "IC50": 7}, {"smiles": "COc1ccc(/C=N/NC(=O)CNc2ccccc2)cc1OC", "note": "[Phenylaminoacetic acid benzylidene hydrazine analog, 2]", "IC50": "> 159"}, {"smiles": "CN(C)c1ccc(/C=N/NC(=O)CNc2ccc(F)cc2)cc1", "note": "[Phenylaminoacetic acid benzylidene hydrazine analog, 7]", "IC50": 8}, {"smiles": "CN(C)c1ccc(/C=N/NC(=O)CNc2ccccc2)cc1", "note": "[Phenylaminoacetic acid benzylidene hydrazine analog, 11]", "IC50": "> 168"}, {"smiles": "O=C(CNc1cccc(Cl)c1)N/N=C/c1ccccc1Cl", "note": "[Phenylaminoacetic acid benzylidene hydrazine analog, 20]", "IC50": 77}, {"smiles": "O=C(CNc1ccc(F)cc1)N/N=C/c1ccccc1Cl", "note": "[Phenylaminoacetic acid benzylidene hydrazine analog, 18]", "IC50": 163}, {"smiles": "O=C(CNc1ccccc1)N/N=C/c1ccccc1Cl", "note": "[Phenylaminoacetic acid benzylidene hydrazine analog, 1]", "IC50": 90}, {"smiles": "O=C(CNc1ccc(F)cc1)N/N=C/c1ccccc1O", "note": "[Phenylaminoacetic acid benzylidene hydrazine analog, 6]", "IC50": 12}, {"smiles": "O=C(CNc1ccc(Cl)cc1)N/N=C/c1ccccc1O", "note": "[Phenylaminoacetic acid benzylidene hydrazine analog, 16]", "IC50": "> 164"}, {"smiles": "O=C(CNc1cccc(Cl)c1)N/N=C/c1cccc(Br)c1", "note": "[Phenylaminoacetic acid benzylidene hydrazine analog, 21]", "IC50": 163}]}]}
